Common to all, as to test: Large panel kinase profiling
What all share (format): biochemical
Holding throughout (conditions): 1 μM test article, 1 mM ATP

For one assay, the target named is T1, GRK5 (Homo sapiens, UniProt P34947).
T1 construct: AssayQuant Technologies, Inc. (service provider)
In outline: (§1)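 CSox-Sensor fluorescence readout; test article 1 μM, ATP 1 mM, 30° C.; kinetic reads at 1-min intervals, Ex 360/Em 485 nm.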

Another assay has as its target T2, MAP3K13 (Homo sapiens, UniProt O43283).
T2 sequence (O43283 1-966): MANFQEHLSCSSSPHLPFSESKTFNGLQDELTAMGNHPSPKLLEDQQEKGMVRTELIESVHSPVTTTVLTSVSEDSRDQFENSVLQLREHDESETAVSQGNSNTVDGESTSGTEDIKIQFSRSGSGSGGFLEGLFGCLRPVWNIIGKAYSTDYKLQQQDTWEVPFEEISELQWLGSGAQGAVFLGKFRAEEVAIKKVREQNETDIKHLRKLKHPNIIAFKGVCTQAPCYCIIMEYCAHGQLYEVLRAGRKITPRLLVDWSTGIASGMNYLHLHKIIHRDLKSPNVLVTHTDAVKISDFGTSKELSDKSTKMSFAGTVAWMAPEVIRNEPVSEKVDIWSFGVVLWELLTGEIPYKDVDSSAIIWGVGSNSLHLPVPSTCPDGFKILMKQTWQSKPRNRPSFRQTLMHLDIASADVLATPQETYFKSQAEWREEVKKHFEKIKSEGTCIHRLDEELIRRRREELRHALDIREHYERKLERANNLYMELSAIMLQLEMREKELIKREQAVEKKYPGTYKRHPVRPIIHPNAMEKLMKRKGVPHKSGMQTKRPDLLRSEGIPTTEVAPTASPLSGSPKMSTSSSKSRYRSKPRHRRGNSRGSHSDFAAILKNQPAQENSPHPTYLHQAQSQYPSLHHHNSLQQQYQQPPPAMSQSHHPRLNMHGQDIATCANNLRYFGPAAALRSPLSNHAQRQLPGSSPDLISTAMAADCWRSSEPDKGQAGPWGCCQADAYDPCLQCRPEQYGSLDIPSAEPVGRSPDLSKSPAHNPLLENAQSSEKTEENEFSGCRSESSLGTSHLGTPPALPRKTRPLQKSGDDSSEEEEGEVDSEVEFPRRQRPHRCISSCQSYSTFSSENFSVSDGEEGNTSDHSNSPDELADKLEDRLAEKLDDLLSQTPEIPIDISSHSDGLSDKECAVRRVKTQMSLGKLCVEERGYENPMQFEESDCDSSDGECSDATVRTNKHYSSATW
Put shortly: as §1

In another assay the target is T3, MARK2 (Homo sapiens, UniProt Q7KZI7).
T3 construct: AssayQuant Technologies, Inc. (assay service)
T3 sequence (Q7KZI7 whole entry, species assumed): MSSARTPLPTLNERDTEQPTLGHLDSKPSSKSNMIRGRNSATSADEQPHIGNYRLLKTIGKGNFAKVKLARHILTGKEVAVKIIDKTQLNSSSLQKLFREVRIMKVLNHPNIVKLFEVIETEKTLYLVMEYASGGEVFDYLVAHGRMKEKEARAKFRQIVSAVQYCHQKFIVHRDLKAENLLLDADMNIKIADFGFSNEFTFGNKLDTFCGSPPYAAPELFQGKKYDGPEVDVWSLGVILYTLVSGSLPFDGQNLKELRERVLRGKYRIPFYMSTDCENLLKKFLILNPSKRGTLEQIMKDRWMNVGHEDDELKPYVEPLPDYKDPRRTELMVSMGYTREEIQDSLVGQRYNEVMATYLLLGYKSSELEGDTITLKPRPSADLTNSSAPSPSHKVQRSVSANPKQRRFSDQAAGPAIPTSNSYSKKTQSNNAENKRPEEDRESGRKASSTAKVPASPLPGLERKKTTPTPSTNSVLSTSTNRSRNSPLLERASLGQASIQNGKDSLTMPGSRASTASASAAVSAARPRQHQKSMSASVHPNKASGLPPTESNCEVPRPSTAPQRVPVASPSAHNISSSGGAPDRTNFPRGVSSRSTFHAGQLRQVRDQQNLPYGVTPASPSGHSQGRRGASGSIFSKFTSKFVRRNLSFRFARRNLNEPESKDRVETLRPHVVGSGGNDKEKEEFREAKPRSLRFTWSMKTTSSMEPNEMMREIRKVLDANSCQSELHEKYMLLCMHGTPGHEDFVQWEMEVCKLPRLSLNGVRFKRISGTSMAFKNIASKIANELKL
Put shortly: as §1

A further assay concerns the target T4, MUSK (Homo sapiens, UniProt O15146).
T4 construct: AssayQuant Technologies, Inc. (assay service)
T4 sequence (O15146 24-869): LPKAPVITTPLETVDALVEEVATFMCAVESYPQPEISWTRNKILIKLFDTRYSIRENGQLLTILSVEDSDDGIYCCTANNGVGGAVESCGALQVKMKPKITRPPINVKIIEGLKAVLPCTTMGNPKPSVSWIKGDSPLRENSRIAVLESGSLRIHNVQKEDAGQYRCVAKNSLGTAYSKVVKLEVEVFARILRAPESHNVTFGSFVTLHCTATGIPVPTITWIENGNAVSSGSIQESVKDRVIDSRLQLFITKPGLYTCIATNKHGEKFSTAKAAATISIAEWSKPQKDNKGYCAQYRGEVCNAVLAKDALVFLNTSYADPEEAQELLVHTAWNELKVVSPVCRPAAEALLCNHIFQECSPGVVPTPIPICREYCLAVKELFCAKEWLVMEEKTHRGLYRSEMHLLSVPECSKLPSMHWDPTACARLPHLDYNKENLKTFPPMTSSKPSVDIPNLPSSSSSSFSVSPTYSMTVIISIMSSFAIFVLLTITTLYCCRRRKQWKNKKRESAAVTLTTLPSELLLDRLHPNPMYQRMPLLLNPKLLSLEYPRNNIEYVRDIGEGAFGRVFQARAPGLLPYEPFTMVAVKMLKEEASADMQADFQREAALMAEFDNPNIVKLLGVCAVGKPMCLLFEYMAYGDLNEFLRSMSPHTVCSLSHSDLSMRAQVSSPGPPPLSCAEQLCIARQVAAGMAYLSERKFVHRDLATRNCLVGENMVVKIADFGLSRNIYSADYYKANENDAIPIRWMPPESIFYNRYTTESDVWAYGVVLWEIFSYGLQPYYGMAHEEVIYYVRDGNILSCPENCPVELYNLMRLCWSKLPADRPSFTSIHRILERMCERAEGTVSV
In outline:
as §1

A further assay addresses RAF1 (Homo sapiens, UniProt P04049). Put shortly: as §1
The target of a further assay is RPS6KA1/RSK1 (Homo sapiens, UniProt Q15418). In outline:
as §1

For another assay, the target named is T5, TYK2(JH1) (Homo sapiens, UniProt P29597).
T5 construct: TYK2(JH1); AssayQuant Technologies, Inc. (contract laboratory that ran the panel)
T5 sequence (P29597 897-1176 limits assumed): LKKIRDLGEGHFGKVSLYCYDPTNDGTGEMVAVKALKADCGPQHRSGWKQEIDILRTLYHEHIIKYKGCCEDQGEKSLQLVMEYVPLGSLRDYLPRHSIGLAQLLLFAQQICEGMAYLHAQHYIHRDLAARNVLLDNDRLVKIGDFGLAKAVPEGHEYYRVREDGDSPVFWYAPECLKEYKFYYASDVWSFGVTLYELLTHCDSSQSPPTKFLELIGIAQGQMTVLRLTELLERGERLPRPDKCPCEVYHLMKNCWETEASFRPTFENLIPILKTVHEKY
Put shortly:
as §1

Structures are written as SMILES.

RPS6KA1/RSK1, sequence (Q15418 whole entry): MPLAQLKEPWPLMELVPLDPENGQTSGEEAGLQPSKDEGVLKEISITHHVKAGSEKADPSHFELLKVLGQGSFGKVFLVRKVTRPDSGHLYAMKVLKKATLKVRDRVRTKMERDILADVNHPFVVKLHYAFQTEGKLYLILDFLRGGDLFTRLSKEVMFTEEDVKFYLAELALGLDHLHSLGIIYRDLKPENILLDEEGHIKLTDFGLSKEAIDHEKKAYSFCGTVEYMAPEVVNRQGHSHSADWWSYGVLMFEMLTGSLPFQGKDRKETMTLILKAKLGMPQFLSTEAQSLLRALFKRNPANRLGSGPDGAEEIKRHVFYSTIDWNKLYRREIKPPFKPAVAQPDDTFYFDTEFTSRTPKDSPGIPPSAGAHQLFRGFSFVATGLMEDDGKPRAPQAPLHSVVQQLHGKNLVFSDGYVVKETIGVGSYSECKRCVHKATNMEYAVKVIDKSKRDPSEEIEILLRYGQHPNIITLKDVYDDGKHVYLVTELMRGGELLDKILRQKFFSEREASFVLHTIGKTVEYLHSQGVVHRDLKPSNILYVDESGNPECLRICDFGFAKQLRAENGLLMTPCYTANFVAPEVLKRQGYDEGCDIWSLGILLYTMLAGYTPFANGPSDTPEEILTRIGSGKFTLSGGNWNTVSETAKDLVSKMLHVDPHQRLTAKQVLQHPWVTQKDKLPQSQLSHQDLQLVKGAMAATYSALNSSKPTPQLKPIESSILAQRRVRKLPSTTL
RAF1, sequence (P04049 whole entry, species assumed): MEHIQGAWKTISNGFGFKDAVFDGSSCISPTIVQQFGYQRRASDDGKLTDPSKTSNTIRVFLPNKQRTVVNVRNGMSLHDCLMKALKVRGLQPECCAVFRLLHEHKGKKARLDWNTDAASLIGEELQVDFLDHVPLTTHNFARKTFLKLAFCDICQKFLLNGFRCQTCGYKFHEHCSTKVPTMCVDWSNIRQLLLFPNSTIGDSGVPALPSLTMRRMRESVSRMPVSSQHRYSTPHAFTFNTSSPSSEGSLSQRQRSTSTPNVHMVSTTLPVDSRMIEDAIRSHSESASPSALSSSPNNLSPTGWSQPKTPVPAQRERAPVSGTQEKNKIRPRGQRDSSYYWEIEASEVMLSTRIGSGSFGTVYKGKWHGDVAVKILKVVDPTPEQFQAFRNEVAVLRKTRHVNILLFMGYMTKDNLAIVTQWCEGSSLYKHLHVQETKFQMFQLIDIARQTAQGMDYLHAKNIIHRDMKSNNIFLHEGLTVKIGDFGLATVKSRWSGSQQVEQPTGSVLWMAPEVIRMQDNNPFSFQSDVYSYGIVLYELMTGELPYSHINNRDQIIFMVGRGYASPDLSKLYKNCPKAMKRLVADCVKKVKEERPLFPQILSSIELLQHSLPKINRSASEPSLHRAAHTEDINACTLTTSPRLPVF
T1 sequence (P34947 whole entry, species assumed): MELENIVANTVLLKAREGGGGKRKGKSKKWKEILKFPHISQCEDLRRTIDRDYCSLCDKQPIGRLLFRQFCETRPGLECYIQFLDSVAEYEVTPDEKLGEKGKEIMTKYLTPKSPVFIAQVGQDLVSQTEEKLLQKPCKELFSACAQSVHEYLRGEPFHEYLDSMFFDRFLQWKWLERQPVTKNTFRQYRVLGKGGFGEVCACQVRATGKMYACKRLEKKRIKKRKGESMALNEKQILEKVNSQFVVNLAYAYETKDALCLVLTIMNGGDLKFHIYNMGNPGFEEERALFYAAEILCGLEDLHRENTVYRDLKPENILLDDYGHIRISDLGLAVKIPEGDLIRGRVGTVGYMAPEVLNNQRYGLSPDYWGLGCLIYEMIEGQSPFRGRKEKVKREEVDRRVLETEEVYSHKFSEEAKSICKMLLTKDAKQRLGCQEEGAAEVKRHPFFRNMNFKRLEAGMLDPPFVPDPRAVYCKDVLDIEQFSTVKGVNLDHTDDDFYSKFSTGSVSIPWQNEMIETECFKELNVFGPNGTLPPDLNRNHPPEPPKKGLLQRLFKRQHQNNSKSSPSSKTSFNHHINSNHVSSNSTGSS

As a reminder, the inhibition is the relative decrease from the control value, in per cent. Take `C=CC(=O)N1CCC[C@@H](c2c(F)cc(C(N)=O)c3[nH]c4c(c23)CCC4)C1` [Compound 10-2, (S)-8-(1-acryloylpiperidin-3-yl)-7-fluoro-1,2,3,4-tetrahydrocyclo-penta[b]indole-5-carboxamide]: the inhibition at 1 µM on GRK5 was -2.2%; against MAP3K13 it was 3.2%; against MARK2 it was -8.8%; on MUSK it was 3%; against RAF1 it was -3.1%; on RPS6KA1/RSK1 it was -29.2%. For the same molecule, the inhibition at 1 µM on TYK2(JH1) was found to be 3.5%.

Regarding `C=CC(=O)N1CCCC(c2c(F)cc(C(N)=O)c3[nH]c4c(c23)CCCCC4)C1` (single isomer, unassigned) [Compound 5-6], the inhibition at 1 µM was -8.8% against GRK5; 3.6% on MAP3K13; 11.8% on MARK2; 10.9% at MUSK; 3.7% on RAF1; 6.7% at RPS6KA1/RSK1. Further, at TYK2(JH1), the inhibition at 1 µM is -2.7%.

On to `C=CC(=O)N1CCC[C@@H](c2c(F)cc(C(N)=O)c3[nH]c4c(c23)CC2(CC4)CC2)C1` [Compound 6-2, (S)-5-(1-acryloylpiperidin-3-yl)-6-fluoro-1,2,4,9-tetrahydrospiro[carbazole-3,1′-cyclopropane]-8-carboxamide], for which the inhibition at 1 µM is -114% against GRK5; 16.1% against MAP3K13; -33.3% against MARK2; -3.1% on MUSK; 1% against RAF1; -49.1% against RPS6KA1/RSK1. The inhibition at 1 µM at TYK2(JH1) was -1.1%.
